Legend:
mature MHV M^pro = mature MHV M^pro (Murine hepatitis virus strain A59, UniProt P0C6X9); experiment: fluorogenic peptide cleavage; type: biochemical
in vitro = conditions: human, caco-2 cells
mature SARSCoV2 M^pro = mature SARSCoV2 M^pro (Severe acute respiratory syndrome coronavirus 2, UniProt P0DTD1); experiment: biochemical

Chain of mature MHV M^pro (P0C6X9 3334-3635): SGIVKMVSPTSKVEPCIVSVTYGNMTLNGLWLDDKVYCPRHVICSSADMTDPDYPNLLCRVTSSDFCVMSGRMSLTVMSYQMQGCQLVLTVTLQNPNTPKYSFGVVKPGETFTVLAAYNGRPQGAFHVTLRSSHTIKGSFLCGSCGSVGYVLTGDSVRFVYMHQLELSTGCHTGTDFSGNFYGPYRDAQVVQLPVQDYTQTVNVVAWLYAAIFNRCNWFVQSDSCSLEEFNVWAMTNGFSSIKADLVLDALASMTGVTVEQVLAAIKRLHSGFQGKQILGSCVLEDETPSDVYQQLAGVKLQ

| SMILES | IC50 (mature MHV M^pro) [µM] | CC50 (in vitro) [µM] | IC50 (mature SARSCoV2 M^pro) [µM] |
| --- | --- | --- | --- |
| CC(C)(C)NC(=O)N[C@H](C(=O)N1C[C@@H]2CCC[C@@H]2[C@H]1C(=O)N[C@@H](C[C@@H]1CCNC1=O)C(=O)C(N)=O)C(C)(C)C [ML1100] | 0.301 ± 0.152 | > 100 | 0.147 ± 0.008 |
| CC(C)(C)NC(=O)N[C@H](C(=O)N1C[C@H]2[C@@H]([C@H]1C(=O)N[C@@H](C[C@@H]1CCNC1=O)C(=O)C(N)=O)C2(C)C)C(C)(C)C [ML1000] | 0.13 ± 0.025 | > 100 | – |
| CC(C)C[C@H](NC(=O)OCc1ccccc1)C(=O)N[C@@H](C[C@@H]1CCNC1=O)C(O)S(=O)(=O)O (some centres unmarked) [GC-376] | – | > 100 | – |
| CC(C)(C)NC(=O)N[C@H](C(=O)N1C[C@H]2[C@@H]([C@H]1C(=O)NC(CC1CCC1)C(=O)C(N)=O)C2(C)C)C(C)(C)C (some centres unmarked) [boceprevir] | 15 ± 7 | > 100 | – |

Reference: paper doi:10.1101/2020.09.15.275891v2 (biorxiv, 2020)
